Laboratory results: the NIST ThermoML archive (doi:10.1016/j.jct.2018.03.013)
± gives the expanded uncertainty stated by the source.

Assay: xn = mol fraction of the nth substance listed
Conditions: 100 kPa, Liquid; for speed of sound: Frequency=3 MHz, Linear variable-path acoustic interferometer; for mass density: Pycnometric method

**Q.** For C=C(C)C(=O)OC [methyl methacrylate] + CC#N, which speed of sound (308.15 K, x2 = 0) is on record?
**A.** Its speed of sound is 1152.6 ± 1.6 m/s.

**Q.** And the speed of sound (308.15 K, x2 = 0.0688)?
**A.** The speed of sound was 1159.6 ± 1.6 m/s.

**Q.** And the speed of sound (308.15 K, x2 = 0.1376)?
**A.** The speed of sound was 1166 ± 1.6 m/s.

**Q.** And the speed of sound (308.15 K, x2 = 0.1957)?
**A.** Its speed of sound is 1171.2 ± 1.6 m/s.

**Q.** And the speed of sound (308.15 K, x2 = 0.2716)?
**A.** The speed of sound was 1177.8 ± 1.6 m/s.

**Q.** What about the speed of sound (308.15 K, x2 = 0.3344) of the same molecule?
**A.** The speed of sound was 1183 ± 1.6 m/s.

**Q.** And the speed of sound (308.15 K, x2 = 0.4135)?
**A.** Its speed of sound is 1189.5 ± 1.6 m/s.

**Q.** What about the speed of sound (308.15 K, x2 = 0.4916) of the same molecule?
**A.** Its speed of sound is 1195.7 ± 1.6 m/s.

**Q.** And the speed of sound (308.15 K, x2 = 0.5649)?
**A.** Its speed of sound is 1201.5 ± 1.6 m/s.

**Q.** And the speed of sound (308.15 K, x2 = 0.6386)?
**A.** Its speed of sound is 1207.4 ± 1.6 m/s.

**Q.** What about the speed of sound (308.15 K, x2 = 0.7084) of the same molecule?
**A.** Its speed of sound is 1213.2 ± 1.6 m/s.

**Q.** What about the speed of sound (308.15 K, x2 = 0.7927) of the same molecule?
**A.** The speed of sound was 1220.8 ± 1.6 m/s.

**Q.** What about the speed of sound (308.15 K, x2 = 0.855) of the same molecule?
**A.** The speed of sound was 1227.1 ± 1.6 m/s.

**Q.** What about the speed of sound (308.15 K, x2 = 0.9073) of the same molecule?
**A.** The speed of sound was 1233 ± 1.6 m/s.

**Q.** And the speed of sound (308.15 K, x2 = 0.9497)?
**A.** The speed of sound was 1238.2 ± 1.6 m/s.

**Q.** And the mass density (308.15 K, x2 = 0)?
**A.** The mass density was 926.16 ± 1 kg/m3.

**Q.** What about the mass density (308.15 K, x2 = 0.0688) of the same molecule?
**A.** Its mass density is 921.23 ± 1 kg/m3.

**Q.** What about the mass density (308.15 K, x2 = 0.1376) of the same molecule?
**A.** Its mass density is 915.74 ± 1 kg/m3.

**Q.** And the mass density (308.15 K, x2 = 0.1957)?
**A.** Its mass density is 910.65 ± 1 kg/m3.

**Q.** What about the mass density (308.15 K, x2 = 0.2716) of the same molecule?
**A.** Its mass density is 903.31 ± 1 kg/m3.

**Q.** And the mass density (308.15 K, x2 = 0.3344)?
**A.** Its mass density is 896.61 ± 1 kg/m3.

**Q.** What about the mass density (308.15 K, x2 = 0.4135) of the same molecule?
**A.** Its mass density is 887.27 ± 1 kg/m3.

**Q.** And the mass density (308.15 K, x2 = 0.4916)?
**A.** Its mass density is 876.95 ± 1 kg/m3.

**Q.** What about the mass density (308.15 K, x2 = 0.5649) of the same molecule?
**A.** Its mass density is 866.13 ± 1 kg/m3.

**Q.** What about the mass density (308.15 K, x2 = 0.6386) of the same molecule?
**A.** The mass density was 853.94 ± 1 kg/m3.

**Q.** What about the mass density (308.15 K, x2 = 0.7084) of the same molecule?
**A.** The mass density was 841.01 ± 1 kg/m3.

**Q.** And the mass density (308.15 K, x2 = 0.7927)?
**A.** Its mass density is 823.27 ± 1 kg/m3.

**Q.** What about the mass density (308.15 K, x2 = 0.855) of the same molecule?
**A.** The mass density was 808.39 ± 1 kg/m3.

**Q.** What about the mass density (308.15 K, x2 = 0.9073) of the same molecule?
**A.** Its mass density is 794.51 ± 1 kg/m3.

**Q.** And the mass density (308.15 K, x2 = 0.9497)?
**A.** The mass density was 782.21 ± 1 kg/m3.

**Q.** And the speed of sound (313.15 K, x2 = 0)?
**A.** Its speed of sound is 1135.4 ± 1.6 m/s.

**Q.** What about the speed of sound (313.15 K, x2 = 0.0688) of the same molecule?
**A.** The speed of sound was 1142.4 ± 1.6 m/s.

**Q.** And the speed of sound (313.15 K, x2 = 0.1376)?
**A.** The speed of sound was 1148.7 ± 1.6 m/s.

**Q.** And the speed of sound (313.15 K, x2 = 0.1957)?
**A.** Its speed of sound is 1153.9 ± 1.6 m/s.

**Q.** And the speed of sound (313.15 K, x2 = 0.2716)?
**A.** Its speed of sound is 1160.3 ± 1.6 m/s.

**Q.** And the speed of sound (313.15 K, x2 = 0.3344)?
**A.** The speed of sound was 1165.6 ± 1.6 m/s.

**Q.** And the speed of sound (313.15 K, x2 = 0.4135)?
**A.** Its speed of sound is 1172 ± 1.6 m/s.

**Q.** What about the speed of sound (313.15 K, x2 = 0.4916) of the same molecule?
**A.** Its speed of sound is 1178.1 ± 1.6 m/s.

**Q.** What about the speed of sound (313.15 K, x2 = 0.5649) of the same molecule?
**A.** Its speed of sound is 1183.8 ± 1.6 m/s.

**Q.** And the speed of sound (313.15 K, x2 = 0.6386)?
**A.** Its speed of sound is 1189.5 ± 1.6 m/s.

**Q.** What about the speed of sound (313.15 K, x2 = 0.7084) of the same molecule?
**A.** Its speed of sound is 1195.2 ± 1.6 m/s.

**Q.** What about the speed of sound (313.15 K, x2 = 0.7927) of the same molecule?
**A.** Its speed of sound is 1202.7 ± 1.6 m/s.

**Q.** What about the speed of sound (313.15 K, x2 = 0.855) of the same molecule?
**A.** The speed of sound was 1208.9 ± 1.6 m/s.

**Q.** What about the speed of sound (313.15 K, x2 = 0.9073) of the same molecule?
**A.** The speed of sound was 1214.7 ± 1.6 m/s.

**Q.** And the speed of sound (313.15 K, x2 = 0.9497)?
**A.** Its speed of sound is 1219.8 ± 1.6 m/s.

**Q.** What about the mass density (313.15 K, x2 = 0) of the same molecule?
**A.** Its mass density is 920.42 ± 1 kg/m3.

**Q.** And the mass density (313.15 K, x2 = 0.0688)?
**A.** Its mass density is 915.52 ± 1 kg/m3.

**Q.** What about the mass density (313.15 K, x2 = 0.1376) of the same molecule?
**A.** Its mass density is 910.06 ± 1 kg/m3.

**Q.** And the mass density (313.15 K, x2 = 0.1957)?
**A.** Its mass density is 904.99 ± 1 kg/m3.

**Q.** And the mass density (313.15 K, x2 = 0.2716)?
**A.** The mass density was 897.68 ± 1 kg/m3.

**Q.** And the mass density (313.15 K, x2 = 0.3344)?
**A.** Its mass density is 891 ± 1 kg/m3.

**Q.** And the mass density (313.15 K, x2 = 0.4135)?
**A.** Its mass density is 881.69 ± 1 kg/m3.

**Q.** And the mass density (313.15 K, x2 = 0.4916)?
**A.** Its mass density is 871.4 ± 1 kg/m3.

**Q.** And the mass density (313.15 K, x2 = 0.5649)?
**A.** Its mass density is 860.61 ± 1 kg/m3.

**Q.** What about the mass density (313.15 K, x2 = 0.6386) of the same molecule?
**A.** Its mass density is 848.45 ± 1 kg/m3.

**Q.** And the mass density (313.15 K, x2 = 0.7084)?
**A.** Its mass density is 835.55 ± 1 kg/m3.

**Q.** What about the mass density (313.15 K, x2 = 0.7927) of the same molecule?
**A.** The mass density was 817.85 ± 1 kg/m3.

**Q.** And the mass density (313.15 K, x2 = 0.855)?
**A.** Its mass density is 803 ± 1 kg/m3.

**Q.** What about the mass density (313.15 K, x2 = 0.9073) of the same molecule?
**A.** Its mass density is 789.15 ± 1 kg/m3.

**Q.** And the mass density (313.15 K, x2 = 0.9497)?
**A.** The mass density was 776.87 ± 1 kg/m3.

**Q.** And the speed of sound (318.15 K, x2 = 0)?
**A.** The speed of sound was 1118.3 ± 1.6 m/s.

**Q.** What about the speed of sound (318.15 K, x2 = 0.0688) of the same molecule?
**A.** Its speed of sound is 1125.1 ± 1.6 m/s.

**Q.** What about the speed of sound (318.15 K, x2 = 0.1376) of the same molecule?
**A.** Its speed of sound is 1131.5 ± 1.6 m/s.

**Q.** What about the speed of sound (318.15 K, x2 = 0.1957) of the same molecule?
**A.** The speed of sound was 1136.6 ± 1.6 m/s.

**Q.** And the speed of sound (318.15 K, x2 = 0.2716)?
**A.** The speed of sound was 1143.1 ± 1.6 m/s.

**Q.** And the speed of sound (318.15 K, x2 = 0.3344)?
**A.** Its speed of sound is 1148.2 ± 1.6 m/s.

**Q.** What about the speed of sound (318.15 K, x2 = 0.4135) of the same molecule?
**A.** The speed of sound was 1154.5 ± 1.6 m/s.

**Q.** What about the speed of sound (318.15 K, x2 = 0.4916) of the same molecule?
**A.** Its speed of sound is 1160.5 ± 1.6 m/s.

**Q.** And the speed of sound (318.15 K, x2 = 0.5649)?
**A.** The speed of sound was 1166.1 ± 1.6 m/s.

**Q.** And the speed of sound (318.15 K, x2 = 0.6386)?
**A.** Its speed of sound is 1171.8 ± 1.6 m/s.

**Q.** And the speed of sound (318.15 K, x2 = 0.7084)?
**A.** The speed of sound was 1177.3 ± 1.6 m/s.

**Q.** What about the speed of sound (318.15 K, x2 = 0.7927) of the same molecule?
**A.** Its speed of sound is 1184.6 ± 1.6 m/s.

**Q.** What about the speed of sound (318.15 K, x2 = 0.855) of the same molecule?
**A.** The speed of sound was 1190.7 ± 1.6 m/s.

**Q.** And the speed of sound (318.15 K, x2 = 0.9073)?
**A.** The speed of sound was 1196.3 ± 1.6 m/s.

**Q.** And the speed of sound (318.15 K, x2 = 0.9497)?
**A.** Its speed of sound is 1201.4 ± 1.6 m/s.

**Q.** And the mass density (318.15 K, x2 = 0)?
**A.** Its mass density is 914.67 ± 1 kg/m3.

**Q.** What about the mass density (318.15 K, x2 = 0.0688) of the same molecule?
**A.** Its mass density is 909.81 ± 1 kg/m3.

**Q.** What about the mass density (318.15 K, x2 = 0.1376) of the same molecule?
**A.** The mass density was 904.38 ± 1 kg/m3.

**Q.** What about the mass density (318.15 K, x2 = 0.1957) of the same molecule?
**A.** The mass density was 899.33 ± 1 kg/m3.

**Q.** What about the mass density (318.15 K, x2 = 0.2716) of the same molecule?
**A.** The mass density was 892.05 ± 1 kg/m3.

**Q.** And the mass density (318.15 K, x2 = 0.3344)?
**A.** Its mass density is 885.39 ± 1 kg/m3.

**Q.** And the mass density (318.15 K, x2 = 0.4135)?
**A.** Its mass density is 876.11 ± 1 kg/m3.

**Q.** And the mass density (318.15 K, x2 = 0.4916)?
**A.** The mass density was 865.85 ± 1 kg/m3.

**Q.** And the mass density (318.15 K, x2 = 0.5649)?
**A.** The mass density was 855.09 ± 1 kg/m3.

**Q.** And the mass density (318.15 K, x2 = 0.6386)?
**A.** Its mass density is 842.96 ± 1 kg/m3.

**Q.** What about the mass density (318.15 K, x2 = 0.7084) of the same molecule?
**A.** The mass density was 830.09 ± 1 kg/m3.

**Q.** What about the mass density (318.15 K, x2 = 0.7927) of the same molecule?
**A.** Its mass density is 812.43 ± 1 kg/m3.

**Q.** And the mass density (318.15 K, x2 = 0.855)?
**A.** Its mass density is 797.61 ± 1 kg/m3.

**Q.** And the mass density (318.15 K, x2 = 0.9073)?
**A.** Its mass density is 783.79 ± 1 kg/m3.

**Q.** What about the mass density (318.15 K, x2 = 0.9497) of the same molecule?
**A.** The mass density was 771.53 ± 1 kg/m3.
